pIC50: −log10 of the molar value. Read-outs that look alike come from different tables or passages of the source. *1 amine or outer side, *2 acyl side, *3 side chain or, on linkers, in order; H or OH if unused. Where a SMILES comes first, the peptide text is derived from it. Side-chain parts run from the residue outwards. [ ]: non-standard residue; d: D form. The star is where a group is joined. Acryloyl(3-(pyridin-3-yl)) = O=C(C=Cc1cccnc1)*; Adoc = O=C(OC12CC3CC(CC(C3)C1)C2)*; Isopropoxycarbonyl = CC(C)OC(=O)*; X12 = O=C(C=Cc1ccc(C(F)(F)F)cc1)*; NMeF = CN[C@@H](Cc1ccccc1)C(=O)O; NMeD = CN[C@@H](CC(=O)O)C(=O)O; X4 = O=C(OC1C2CC3CC(C2)CC1C3)*; NH(2-Me-phenyl) = Cc1ccccc1N*; X9 = CN(C)c1ccc(C=CC(=O)*)cc1; X17 = O=C(C=Cc1ccccc1O)*; βNA = c1ccc2cc(N*)ccc2c1; Boc = CC(C)(C)OC(=O)*; CO = O=C([*:1])[*:2]; X6 = O=C(Oc1ccccc1)*; Moc = COC(=O)*

One assay concerns the target T1, Type-A CCK receptor (Cavia porcellus, UniProt Q63931).
T1 construct: Cortical and pancreatic membranes were prepared as described; from tissue; host or cells: guinea pig pancreas membranes
T1 sequence (Q63931 1-430): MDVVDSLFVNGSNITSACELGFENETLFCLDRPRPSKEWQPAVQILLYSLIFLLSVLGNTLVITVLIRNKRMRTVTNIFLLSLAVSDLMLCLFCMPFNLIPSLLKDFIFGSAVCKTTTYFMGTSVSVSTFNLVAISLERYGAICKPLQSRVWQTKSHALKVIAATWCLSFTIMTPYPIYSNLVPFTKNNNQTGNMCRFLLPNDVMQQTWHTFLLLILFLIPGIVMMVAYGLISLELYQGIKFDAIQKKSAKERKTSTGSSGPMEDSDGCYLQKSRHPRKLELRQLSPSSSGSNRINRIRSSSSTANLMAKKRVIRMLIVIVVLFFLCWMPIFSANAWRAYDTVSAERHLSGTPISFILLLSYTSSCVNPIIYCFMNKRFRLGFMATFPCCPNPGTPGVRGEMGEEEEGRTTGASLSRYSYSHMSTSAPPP
The assay is described as follows: Radioligand binding of [125I]BH-CCK-8 in guinea pig pancreatic membrane preparations. The conditions noted are these: for IC50: guinea pig pancreatic membranes, 37° C., 150 min. From the text:
(§1) CCK-8 [Asp-Tyr(SO3 H)-Met-Gly-Trp-Met-Asp-PheNH2 ], bestatin and phosphoramidion were purchased from Peptide International (Louisville, Ky.). EGTA (ethylene glycol-bis-(β-aminoethyl) N,N,N',N'-tetraacetic acid), HEPES (4-(2-hydroxyethyl)-1-piperazine-enthanesulfonic acid) and BSA (bovine serum albumin) were purchased from Sigma Chemical Co. (St. Louis, Mo.). [^125 I]-Bolton-Hunteer (BH-CCK-8) (specific activity, 2200 Ci/mmol) was obtained from New England Nuclear (Boston, Mass.). Male guinea pigs, 250 to 325 g, were obtained from Scientific Small Animal Laboratory and Farm (Arlington Heights, Ill.). Collagenase, code CLSPA was purchased from Worthington (Frehold, N.J.).
(§2) Protocol For Radioligand Binding Experiments in Guinea Pig Cerebral Cortical and Pancreatic Membrane Preparations
(§3) Cortical and pancreatic membranes were prepared as described (Lin and Miller; J. Pharmacol. Exp. Ther. 1985, 232:775-780,). In brief, cortex and pancreas were removed and rinsed with ice-cold saline. Visible fat and connective tissues were removed from the pancreas. […] The homogenates were entrifuged for 10 minutes at 1075×g and pellets were discarded. The supernatants were saved and centrifuged at 38,730×g for 20 minutes. The resultant pellets were rehomogenized in 25 mL of 50 mM Tris-HCl buffer with a Teflon-glass homogenizer, 5 up and down strokes. The homogenates were centrifuged again at 38,730×g for 20 minutes. Pellets werre then resuspended in 20 mM HEPES, containing 1 mM EGTA, 118 mM NaCl, 4.7 mM KCl, 5 mM MgCl2, 100 μM bestatin, 3 μM phosphoramidon, pH 7.4 at 22° C. with a Teflon-glass homogenizer, 15 up and down strokes. Resuspension volume for the cortex was 15-18 mL per gram of original wet weight and 60 mL per gram for the pancreas.
(§4) [^125 I]Bolton-Hunter CCK-8 and test compounds were diluted with HEPES-EGTA-salt buffer (see above) containing 0.5% BSA. To 1 mL Skatron polystyrene tubes were added 25 μL of test compounds, 25 μL of [^125 I]BH-CCK-8 and 200 μL of membrane suspension. The final BSA concentration was 0.1%. The cortical tissues were incubated at 30° C. for 150 minutes and pancreatic tissues were incubated at 37° C. for 150 min. Incubations were terminated by filtration using Skatron Cell Harvester and SS32 microfiber filter mats. […] IC50 s were determined from the Hill analysis.

The target of another assay is T2, Type-B CCK receptor (Cavia porcellus, UniProt H0VZC5).
T2 construct: Cortical and pancreatic membranes were prepared as described; from tissue; host or cells: guinea pig cerebral cortex membranes
T2 sequence (H0VZC5 1-426): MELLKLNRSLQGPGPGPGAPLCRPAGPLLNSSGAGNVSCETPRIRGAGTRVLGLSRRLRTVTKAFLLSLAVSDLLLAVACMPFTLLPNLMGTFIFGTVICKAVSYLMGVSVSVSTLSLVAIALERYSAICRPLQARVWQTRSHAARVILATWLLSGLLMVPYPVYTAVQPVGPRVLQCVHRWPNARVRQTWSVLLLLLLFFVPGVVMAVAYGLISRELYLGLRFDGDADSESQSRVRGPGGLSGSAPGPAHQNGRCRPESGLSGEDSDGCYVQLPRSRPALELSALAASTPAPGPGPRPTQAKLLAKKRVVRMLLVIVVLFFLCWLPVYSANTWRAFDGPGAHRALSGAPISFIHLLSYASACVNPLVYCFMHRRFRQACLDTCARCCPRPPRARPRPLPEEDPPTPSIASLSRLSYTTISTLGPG
The assay is described as follows: Radioligand binding of [125I]BH-CCK-8 in guinea pig cerebral cortical membrane preparations. The conditions noted are these: for IC50: guinea pig cortical membranes, 30° C., 150 minutes.
Excerpt: as §1, §2, §3, §4

The mark [1] stands for this setting: IC50 (nM) 125I-BH-CCK-8 Type-A receptor.
The mark [2] stands for this setting: IC50 (nM) 125I-BH-CCK-8 Type-B receptor.
[3] abbreviates: read-out: IC50 (nM) 125I-BH-CCK-8 Type-A receptor.
Where [4] appears, read: read-out: IC50 (nM) 125I-BH-CCK-8 Type-B receptor.

With `Cc1ccccc1NC(=O)NCCCC[C@H](NC(=O)C(C)(N)Cc1c[nH]c2ccccc12)C(=O)N[C@@H](CC(=O)O)C(=O)N(C)[C@@H](Cc1ccccc1)C(N)=O` (single isomer, unassigned; isomer b) [Example 99, (α-Methyl)Trp-Lys(ε-N-(2-methylphenyl)aminocarbonyl)-Asp-(NMe)PheNH2 (Isomer B)], the IC50 at Type-A CCK receptor (setting [1]) is 67 nM; at Type-B CCK receptor (setting [2]), over 10000 nM.
As for `Cc1ccccc1NC(=O)NCCCC[C@H](NC(=O)[C@H](Cc1c[nH]c2ccccc12)NC(=O)Oc1ccccc1)C(=O)N[C@@H](CC(=O)O)C(=O)N(C)[C@@H](Cc1ccccc1)C(N)=O` [Example 79, Phenoxycarbonyl-Trp-Lys(ε-N-(2-methylphenyl)aminocarbonyl)-Asp-(NMe)PheNH2] (X6-WK([CO-NH(2-Me-phenyl)])D[NMeF]-NH2), the negative logarithm of the IC50 (pIC50) is 8.00 at Type-A CCK receptor and 5.14 at Type-B CCK receptor.
With `Cc1ccccc1NC(=O)NCCCC[C@H](NC(=O)C(F)Cc1c[nH]c2ccccc12)C(=O)N(C)[C@@H](CC(=O)O)C(=O)N[C@@H](Cc1ccccc1)C(N)=O` (stereo partly drawn) [Example 109, (2-Fluoro-3-(3-indolyl)propionyl)-Lys(ε-N-(2-methylphenyl)aminocarbonyl)-(NMe)Asp-PheNH2], the IC50 on Type-A CCK receptor (setting [3]) is 15 nM; on Type-B CCK receptor (setting [4]), over 10000 nM.
Consider `COC(=O)N[C@@H](Cc1c[nH]c2ccccc12)C(=O)N[C@@H](CCCCNC(=O)Nc1ccccc1C)C(=O)N[C@@H](CC(=O)O)C(=O)N(C)[C@@H](Cc1ccccc1)C(N)=O` [Example 80, Methoxycarbonyl-Trp-Lys(ε-N-(2-methylphenyl)aminocarbonyl)-Asp-(NMe)PheNH2] (Moc-WK([CO-NH(2-Me-phenyl)])D[NMeF]-NH2), for which the pIC50 is 8.32 at Type-A CCK receptor and 5.28 on Type-B CCK receptor.
On the same counts, the results for `Cc1ccccc1NC(=O)NCCCC[C@H](NC(=O)[C@H](Cc1c[nH]c2ccccc12)NC(=O)OC12CC3CC(CC(C3)C1)C2)C(=O)N[C@@H](CC(=O)O)C(=O)N(C)[C@@H](Cc1ccccc1)C(N)=O` [Example 75, 1-Adamantyloxycarbonyl-Trp-Lys(ε-N-(2-methylphenyl)aminocarbonyl)-Asp-(NMe)PheNH2] (Adoc-WK([CO-NH(2-Me-phenyl)])D[NMeF]-NH2) are 7.77 and 5.00.
Turning to `CN(C)c1ccc(C=CC(=O)NCCCC[C@H](NC(=O)[C@H](Cc2c[nH]c3ccccc23)NC(=O)OC(C)(C)C)C(=O)N[C@@H](CC(=O)O)C(=O)N[C@@H](Cc2ccccc2)C(N)=O)cc1` [Example 13, t-BOC-Trp-Lys(ε-N-(4-(dimethylamino)cinnamoyl))-Asp-PheNH2] (Boc-WK(X9)DF-NH2), the IC50 was 120 nM at Type-A CCK receptor (setting [3]) and 2100 nM on Type-B CCK receptor (setting [4]).
On the same counts, the results for `CC(C)(C)OC(=O)N[C@@H](Cc1c[nH]c2ccccc12)C(=O)N[C@@H](CCCCNC(=O)C=Cc1ccccc1O)C(=O)N[C@@H](CC(=O)O)C(=O)N[C@@H](Cc1ccccc1)C(N)=O` [Example 22, t-BOC-Trp-Lys(ε-N-(2-hydroxycinnamoyl))-Asp-PheNH2] (Boc-WK(X17)DF-NH2) are 81 nM and 200 nM.
Take `CN(C(=O)[C@H](CCCCNC(=O)C=Cc1cccnc1)NC(=O)[C@H](Cc1c[nH]c2ccccc12)NC(=O)OC(C)(C)C)[C@@H](CC(=O)O)C(=O)N[C@@H](Cc1ccccc1)C(N)=O` [Example 67, t-BOC-Trp-Lys-(ε-N-3-(3-pyridyl)acrylyl)-(NMe)Asp-PheNH2] (Boc-WK(Acryloyl(3-(pyridin-3-yl)))[NMeD]F-NH2): the concentration for half-maximal inhibition (IC50) was found to be 40 nM at Type-A CCK receptor (setting [3]) and 8300 nM at Type-B CCK receptor (setting [4]).
`Cc1ccccc1NC(=O)NCCCC[C@H](NC(=O)[C@H](Cc1c[nH]c2ccccc12)NC(=O)OC1C2CC3CC(C2)CC1C3)C(=O)N[C@@H](CC(=O)O)C(=O)N(C)[C@@H](Cc1ccccc1)C(N)=O` (stereo partly drawn) [Example 74, 2-Adamantyloxycarbonyl-Trp-Lys(ε-N-(2-methylphenyl)aminocarbonyl)Asp-(NMe)PheNH2] (X4-WK([CO-NH(2-Me-phenyl)])D[NMeF]-NH2): the pIC50 on Type-A CCK receptor is 7.66; on Type-B CCK receptor, 5.10.
Take `CC(C)(C)OC(=O)N[C@@H](Cc1c[nH]c2ccccc12)C(=O)N[C@@H](CCCCNC(=O)C=Cc1ccc(C(F)(F)F)cc1)C(=O)N[C@@H](CC(=O)O)C(=O)N[C@@H](Cc1ccccc1)C(N)=O` [Example 8, t-BOC-Trp-Lys(ε-N-(4-trifluoromethylcinnamoyl))-Asp-PheNH2] (Boc-WK(X12)DF-NH2): the IC50 on Type-A CCK receptor (setting [3]) was 200 nM; on Type-B CCK receptor (setting [4]), 5300 nM.
The like results for `Cc1ccccc1NC(=O)NCCCC[C@H](NC(=O)C(F)Cc1c[nH]c2ccccc12)C(=O)N[C@@H](CC(=O)O)C(=O)N[C@@H](Cc1ccccc1)C(N)=O` (stereo partly drawn) [Example 63, 2-Fluoro-3-(indol-3-yl)propionyl-Lys(ε-N-(2-methylphenyl)aminocarbonyl)-Asp-PheNH2] were, in that order, 20 nM and 4500 nM.
Regarding `Cc1ccccc1NC(=O)NCCCC[C@H](NC(=O)CCc1c[nH]c2ccccc12)C(=O)N(C)[C@@H](CC(=O)O)C(=O)N[C@@H](Cc1cccc2ccccc12)C(N)=O` [Example 103, (3-(3-Indolyl)propionyl)-Lys(ε-N-(2-methylphenyl)aminocarbonyl)-(NMe)Asp-α-NalNH2], the half-maximal inhibitory concentration (IC50) on Type-A CCK receptor (setting [3]) was found to be 6.1 nM; on Type-B CCK receptor (setting [4]), 6600 nM.
For the compound `CC(C)(C)OC(=O)N[C@@H](Cc1c[nH]c2ccccc12)C(=O)N[C@@H](CCCCNC(=O)Nc1ccc2ccccc2c1)C(=O)N[C@@H](CC(=O)O)C(=O)N[C@@H](Cc1ccccc1)C(N)=O` [Example 44, t-BOC-Trp-Lys(ε-N-(β-naphthyl)aminocarbonyl)-Asp-PheNH2] (Boc-WK([CO-βNA])DF-NH2), the IC50 at Type-A CCK receptor (setting [3]) came out at 16 nM. In addition, the pIC50 on Type-B CCK receptor is 5.49.
Regarding `COC(=O)N[C@@H](Cc1c[nH]c2ccccc12)C(=O)N[C@@H](CCCCNC(=O)Nc1ccccc1C)C(=O)N(C)[C@@H](CC(=O)O)C(=O)N[C@@H](Cc1ccccc1)C(N)=O` [Example 81, Methoxycarbonyl-Trp-Lys(ε-N-(2-methylphenyl)aminocarbonyl)-(NMe)Asp-PheNH2] (Moc-WK([CO-NH(2-Me-phenyl)])[NMeD]F-NH2), the IC50 on Type-A CCK receptor (setting [1]) is 2.1 nM; at Type-B CCK receptor (setting [2]), over 10000 nM.
`Cc1ccccc1NC(=O)NCCCC[C@H](NC(=O)[C@H](Cc1c[nH]c2ccccc12)NC(=O)OC(C)C)C(=O)N[C@@H](CC(=O)O)C(=O)N(C)[C@@H](Cc1ccccc1)C(N)=O` [Example 78, Isopropyloxycarbonyl-Trp-Lys(ε-N-(2-methylphenyl)aminocarbonyl)-Asp-(NMe)PheNH2] (Isopropoxycarbonyl-WK([CO-NH(2-Me-phenyl)])D[NMeF]-NH2) came in with a half-inhibitory concentration (IC50) at Type-A CCK receptor (setting [1]) of 1.6 nM. The negative-log IC50 (pIC50) at Type-B CCK receptor is 5.30.

Source of the values: patent publication US5270302A, “Derivatives of tetrapeptides as CCK agonists” (priority 1991, dated 1993).
